Organism: Rattus norvegicus
Assay: Concentration that produces 50% displacement of [3H]-kainic acid from nerve cell membrane receptor sites
Format: functional

| SMILES | IC50 [nM] |
| --- | --- |
| C/C(=C\c1cccc([N+](=O)[O-])c1)C1CN[C@H](C(=O)O)C1CC(=O)O (some centres undefined) | 79.4 |
| C/C(=C/c1cccc([N+](=O)[O-])c1)C1CN[C@H](C(=O)O)C1CC(=O)O (some centres undefined) | 417 |
| CC(C)[C@H]1CN[C@H](C(=O)O)[C@H]1CC(=O)O [DIHYDROKAINATE] | 646 |
| C=C(C)[C@H]1CN[C@H](C(=O)O)[C@H]1CC(=O)O [KAINIC ACID] | 17.8 |
